Structures are written as SMILES. pEC50: −log10 of the molar value. Calls of active or inactive are those of the source. The rule behind the calls is not given here.

In the test the test system is prostate cell differentiation activation, dose response. In words: prostate cell differentiation inducers, concentration series – secondary assay, dose response (AID 1196).
Usually pEC50 stands for the negative decadic logarithm of the EC50, by convention in mol/L. With `CCOc1ccc(NC(=O)COc2nsnc2N2CCCCC2)cc1`, the pEC50 is 6.56.
Still for that read-out and setting: then `COc1cc2nc(N3CCN(C(=O)C4COc5ccccc5O4)CC3)nc(N)c2cc1OC` (stereo not given), with 5.08; and `CCN1CCCC1CNC(=O)C1CCN(Cc2nc(-c3cccc(Br)c3)oc2C)CC1` (stereo not given), with 5.93.
A word on the EC50: it is the concentration at which the effect is half-maximal. Take `COc1ccc(CCn2c(=N)c(C(=O)NCc3ccco3)cc3c(=O)n4ccccc4nc32)cc1`: the EC50 is 29.2 µM (inactive).
Turning to `Cc1ccccc1-c1nc(CN2CCC(C(=O)NCCCN3CCOCC3)CC2)c(C)o1`, the pEC50 is 5.26.
Still for that read-out and setting: with `Cc1ccc2c(c1)-c1c(cnn1CC(=O)Nc1ccccc1N1CCN(C)CC1)CO2` the figure was 5.22; with `CCOC(=O)c1ccccc1NC(=O)Cn1c(-c2nonc2N)nc2ccccc21`, 6.66.
For the compound `Cc1ccc(C)c(N2CCN(CCCNC(=O)Cn3cc4c(n3)CCCCC4)CC2)c1`, the negative logarithm of the EC50 (pEC50) is 5.57.
On to `CCn1c(=O)cc(SCC(=O)NCCN2CCN(Cc3ccccc3)CC2)c2ccccc21`, for which the EC50 is 20.4 µM (inactive).
On the same count and under the same terms, then `Cc1ccccc1-c1nc(CN2CCC(C(=O)NCc3cccnc3)CC2)c(C)o1`, with 12.5 µM (inactive).
For the compound `CCN1CCCC1CNC(=O)c1cc2c(-c3ccc(Cl)cc3)nn(C)c2s1` (stereo not given), the negative-log EC50 (pEC50) is 5.82.
Still for that read-out and setting: with `Cc1ccc(Nc2cc(=O)n(C3CCCCC3)c(=O)[nH]2)cc1C` the figure was 7.06; with `CCN1CCN(CCNC(=O)C2CCN(Cc3nc(-c4ccc(Cl)cc4)oc3C)CC2)CC1`, 5.19; with `Cc1oc(-c2ccc(Cl)cc2)nc1CN1CCC(C(=O)NCCCN2CCOCC2)CC1`, 5.46.
As for `Cc1ccccc1CS(=O)(=O)CCC(=O)NCCCN1CCN(c2ccccc2F)CC1`, the negative logarithm of the EC50 (pEC50) is 5.13.
On the same count and under the same terms, with `CCCN(CCC)CCNC(=O)C1CCN(Cc2nc(-c3ccc(Cl)cc3)oc2C)CC1` the figure was 5.19.
For `COc1ccc2cc3cc(C(=O)Nc4ccccc4N4CCN(C)CC4)oc3nc2c1`, the pEC50 is 5.41.
As to `COc1ccc(Nc2nc(N)nc(CN3CCC(Cc4ccccc4)CC3)n2)cc1`, the pEC50 was 5.54.
With `COc1ccc(-c2ccc(-c3noc(-c4ccccc4)n3)c(OC)n2)cc1`, the negative logarithm of the EC50 (pEC50) was 5.07.
Still for that read-out and setting: with `CCCOc1ccccc1C1CC(=O)Nc2cc3c(cc21)OCO3` (stereo not given) the figure was 6.62; with `CCOc1ccccc1NC(=O)c1nc[nH]c1C(=O)Nc1ccccc1OCC`, 5.05.
Still for that read-out and setting: then `CCn1c(=O)cc(SCC(=O)NCCCN2CCN(c3ccccc3F)CC2)c2ccccc21`, with 5.04; and `CCN1CCN(c2cc(C)c3cc(NC(=O)c4ccc(Br)o4)ccc3n2)CC1`, with 5.47.
For `O=C(NCCCN1CCN(c2cccc(Cl)c2)CC1)c1cccc(N2CCCC2=O)c1`, the EC50 is 17.1 µM (inactive).
With `Cn1nc(-c2ccc(Cl)cc2)c2cc(C(=O)NCCCN3CCOCC3)sc21`, the pEC50 was 5.27.
On the same count and under the same terms, with `Cc1oc(-c2ccc(Cl)cc2)nc1CN1CCC(C(=O)N2CCN(Cc3ccccc3)CC2)CC1` the figure was 5.74.
Same read-out and setting: then `Cn1c(=O)cc(SCC(=O)NCCCN2CCN(c3ccccc3F)CC2)c2ccccc21`, with 5.03.
In the case of `CN(C)CCCN1c2ccccc2CCc2ccc(Cl)cc21`, the negative logarithm of the EC50 (pEC50) was 5.84.
In the case of `Cn1c(=O)cc(OCC(=O)NCCCN2CCN(c3ccccc3F)CC2)c2ccccc21`, the EC50 is 27.8 µM (inactive).
`N=c1n(CCN2CCCCC2)c2ccccc2n1CC(O)COc1ccccc1` (stereo not given): the pEC50 is 5.66.
For the compound `CC1CCCCN1CCNC(=O)c1ccc2c(=O)n(CCc3ccccc3)c(=O)[nH]c2c1` (stereo not given), the EC50 was 16.2 µM (inactive).
For the compound `CCN1CCN(c2ncc(C(=O)Nc3cc(Cl)c(OC)cc3OC)c3ccccc23)CC1`, the pEC50 is 5.28.
As to `COc1ccccc1NC(=O)c1nc[nH]c1C(=O)Nc1ccccc1OC`, the negative logarithm of the EC50 (pEC50) was 5.57.
As to `CCN(CC)CCNC(=O)c1cc2c(-c3ccc(Cl)cc3)nn(C)c2s1`, the negative-log EC50 (pEC50) was 5.61.
On the same count and under the same terms, with `CCOc1cccc2cc(-c3cn4cc(C)ccc4n3)c(=O)oc12` the figure was 5.52.
Turning to `Cc1ccccc1-c1nc(CN2CCCC(C(=O)NCCCN3CCOCC3)C2)c(C)o1` (stereo not given), the EC50 was 11.7 µM (inactive).
Consider `CCN1CCN(C(c2cccs2)C(C)NS(=O)(=O)c2ccc(Br)cc2)CC1` (stereo not given), for which the EC50 was 16.8 µM (inactive).
On to `Cc1ccccc1-c1nc(CN2CCC(C(=O)NCCCN3CC(C)CC(C)C3)CC2)c(C)o1` (stereo not given), for which the negative logarithm of the EC50 (pEC50) is 5.90.
On the same count and under the same terms, with `Cc1ccc(OCC(O)Cn2c(=N)n(CCN3CCCCC3)c3ccccc32)cc1` (stereo not given) the figure was 5.83.
As for `COc1ccc(-c2noc(-c3cc(Cl)ccc3Cl)n2)cc1OC`, the EC50 is 10.3 µM (inactive).
For the compound `CN(C)c1ccc(CNC2CC(C)(C)NC(C)(C)C2)cc1`, the negative-log EC50 (pEC50) was 5.26.
As for `Cc1cc(N2CCN(C)CC2)nc2ccc(NC(=O)c3ccc(Br)o3)cc12`, the negative-log EC50 (pEC50) is 5.66.
Regarding `Cn1c(C(=O)NCCCN2CCN(c3cccc(Cl)c3)CC2)cc2c(=O)n(C)c3ccccc3c21`, the EC50 was 11.1 µM (inactive).
As to `CCN(CC)CCCNC(=O)c1cc2c(-c3ccc(Cl)cc3)nn(C)c2s1`, the pEC50 was 5.55.
With `CCN(CC)CCNC(=O)c1ccc(N2CCCCC2)c(NS(=O)(=O)c2ccc(C)cc2)c1`, the pEC50 is 5.23.

Values taken from PubChem BioAssay AID1196 (NMMLSC, 2008).
